Laboratory results: US20230138851A1, “NOVEL ALKYNE DERIVATIVES” (CARNA BIOSCIENCES, INC., priority 2020, published 2023)

How the values were obtained:
Assay type in all cases: biochemical
DYRK1A = target: T1, DYRK1A (Homo sapiens, UniProt Q13627); assay: Inhibition test on activity of DYRK family, mobility shift assay (MSA), DYRK1A; conditions: ATP 100 μM, FITC-labeled DYRKtide peptide substrate, room temperature 1 hour; for IC50: read-out: Inhibitory Activity 1a (IC50 against DYRK1A)
T1 construct: purchased Carna Biosciences, Inc. 04-130
How it was run: (§1)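 FITC-DYRKtide phosphorylation in 20 mM HEPES pH 7.5 with MgCl2; ATP in the substrate mix was 100 μM (DYRK1A), 200 μM (DYRK1B), 40 μM (DYRK2) or 20 μM (DYRK3). Reactions ran 1 h at room temperature; inhibition from P/(P+S) versus blank and DMSO control, IC50 by regression on log concentration.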

DYRK1B = target: T2, DYRK1B (Homo sapiens, UniProt Q9Y463); assay: Inhibition test on activity of DYRK family, mobility shift assay (MSA), DYRK1B; set-up: Inhibitory Activity 1b (IC50 against DYRK1B): scale not given here; conditions: ATP 200 μM, FITC-labeled DYRKtide peptide substrate, room temperature 1 hour; for IC50: read-out: Inhibitory Activity 1b (IC50 against DYRK1B)
T2 construct: purchased Carna Biosciences, Inc. 04-131
Method: [Inhibition Test on Activity of DYRK Family (DYRK1A, DYRK1B, DYRK2, and […])]
(Method for Measuring Kinase Activity)
The kinase activity was measured by mobility shift assay (MSA) method using QuickScout Screening Assist™ MSA (commercially available kit manufactured by Carna Biosciences, Inc.). The substrate of the kinase reaction used was an FITC-labeled DYRKtide peptide included in the kit. An assay buffer [20 mM HEPES, 0.01% Triton X-100™, 2 mM dithiothreitol, pH 7.5] was used to create a substrate mixture solution with a substrate (4 μM), MgCl2 (20 mM), and ATP (DYRK1A: 100 μM; DYRK1B: 200 μM; DYRK2: 40 μM; and DYRK3: 20 μM). In addition, kinases (DYRK1A: manufactured by Carna Biosciences, Inc., Cat. No. 04-130; DYRK1B: manufactured by Carna Biosciences, Inc., Cat. No. 04-131; DYRK2; manufactured by Carna Biosciences, Inc., Cat. No. 04-132; and DYRK3; manufactured by Carna Biosciences, Inc., Cat. No. 04-133) were diluted with the assay buffer to prepare enzyme solutions (DYRK1A: 0.2 ng/μL; DYRK1B: 0.08 ng/μL; DYRK2: 0.04 ng/μL; and DYRK3: 0.25 ng/μL). The 10 mM solution of the test compound in DMSO was further diluted with DMSO to 10 levels of the concentration (0.00003 mM, 0.0001 mM, 0.0003 mM, 0.001 mM, 0.003 mM, 0.01 mM, 0.03 mM, 0.1 mM, 0.3 mM, and 1 mM), each of which was subjected to 25-fold dilution with the assay buffer to obtain a drug solution (4% DMSO solution). 5 μL of the drug solution or a control solution (4% DMSO-assay buffer), 5 μL of the substrate mixture solution, and 10 μL of the enzyme solution were mixed in the wells of a polypropylene 384-well plate and allowed to react at room temperature for 1 hour, and then the reaction was quenched by adding 60 μL of the termination buffer included in the kit. Subsequently, the quantities of the substrates (S) and the phosphorylated substrate (P) in the reaction solution were measured using LabChip EZ Reader II system (manufactured by Caliper Life Sciences) according to the protocol of the assay kit.
(Method for Evaluating Inhibitory Activity)
The heights of the peaks of the “substrate” and the “phosphorylated substrate” were expressed as S and P, respectively, and a blank containing the assay buffer instead of the enzyme solution was also measured.
The inhibition rate (%) of the test compound was calculated according to the following equation:
Inhibition rate (%)=(1−(C−A)/(B−A))×100
wherein, A, B, and C represent P/(P+S) of the blank well, P/(P+S) of the control solution well, and P/(P+S) of the compound-containing well, respectively.
The IC50 value was calculated via a regression analysis of the inhibition rate and the test compound concentration (logarithmic value).
The inhibiting activities of representative compounds of the present invention are shown against DYRK1A, DYRK1B, DYRK2, and DYRK3 in Tables 7 and 8. The kinase activity inhibitory effect was indicated with the mark *** at an IC50 value of less than 0.01 μM; the mark ** at 0.01 μM or more and less than 0.1 μM; the mark * at 0.1 μM or more and less than 1 μM; and the mark — at 1 μM or more (N.D. indicates not measured).

DYRK2 = target: T3, DYRK2 (Homo sapiens, UniProt Q92630); assay: Inhibition test on activity of DYRK family, mobility shift assay (MSA), DYRK2; conditions: ATP 40 μM, FITC-labeled DYRKtide peptide substrate, room temperature 1 hour; for IC50: read-out: Inhibitory Activity 2 (IC50 against DYRK2)
T3 construct: purchased Carna Biosciences, Inc. 04-132
T3 sequence (Q92630 1-601): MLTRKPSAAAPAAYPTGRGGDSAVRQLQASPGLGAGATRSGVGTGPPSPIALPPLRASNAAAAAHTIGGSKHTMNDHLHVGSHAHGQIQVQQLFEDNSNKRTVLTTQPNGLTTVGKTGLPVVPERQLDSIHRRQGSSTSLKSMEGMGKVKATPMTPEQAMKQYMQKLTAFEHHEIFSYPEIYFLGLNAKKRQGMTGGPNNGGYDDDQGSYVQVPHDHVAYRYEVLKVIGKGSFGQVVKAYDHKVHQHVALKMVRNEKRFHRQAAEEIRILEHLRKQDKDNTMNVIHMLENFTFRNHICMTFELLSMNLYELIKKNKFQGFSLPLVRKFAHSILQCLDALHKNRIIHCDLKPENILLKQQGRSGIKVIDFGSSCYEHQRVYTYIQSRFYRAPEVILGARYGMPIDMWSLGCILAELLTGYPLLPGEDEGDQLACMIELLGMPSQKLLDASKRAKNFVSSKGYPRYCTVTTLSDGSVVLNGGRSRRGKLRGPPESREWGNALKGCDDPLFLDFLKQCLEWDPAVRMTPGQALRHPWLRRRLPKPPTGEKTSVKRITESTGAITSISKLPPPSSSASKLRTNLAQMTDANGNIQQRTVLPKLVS
How it was run: as §1

DYRK3 = target: T4, DYRK3 (Homo sapiens, UniProt O43781); assay: Inhibition test on activity of DYRK family, mobility shift assay (MSA), DYRK3; conditions: ATP 20 μM, FITC-labeled DYRKtide peptide substrate, room temperature 1 hour; for IC50: read-out: Inhibitory Activity 3 (IC50 against DYRK3)
T4 construct: purchased Carna Biosciences, Inc. 04-133
T4 sequence (O43781 1-588): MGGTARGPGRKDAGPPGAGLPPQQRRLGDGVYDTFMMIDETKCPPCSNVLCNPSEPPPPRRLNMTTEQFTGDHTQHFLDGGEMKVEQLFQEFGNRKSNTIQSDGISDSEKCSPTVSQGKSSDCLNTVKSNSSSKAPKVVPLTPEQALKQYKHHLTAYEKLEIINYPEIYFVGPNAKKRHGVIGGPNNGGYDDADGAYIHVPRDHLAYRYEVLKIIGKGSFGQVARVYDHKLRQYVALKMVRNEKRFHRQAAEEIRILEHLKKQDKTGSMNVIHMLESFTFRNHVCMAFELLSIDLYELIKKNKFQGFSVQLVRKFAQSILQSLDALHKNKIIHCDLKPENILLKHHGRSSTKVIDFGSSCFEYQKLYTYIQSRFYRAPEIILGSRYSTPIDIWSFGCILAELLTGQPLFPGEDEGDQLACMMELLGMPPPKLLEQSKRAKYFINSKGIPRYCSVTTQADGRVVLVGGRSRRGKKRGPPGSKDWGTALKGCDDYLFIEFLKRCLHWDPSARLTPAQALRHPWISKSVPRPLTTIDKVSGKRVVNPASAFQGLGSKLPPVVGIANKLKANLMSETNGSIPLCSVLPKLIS
How it was run: as §1

T2 sequence (Q9Y463 whole entry): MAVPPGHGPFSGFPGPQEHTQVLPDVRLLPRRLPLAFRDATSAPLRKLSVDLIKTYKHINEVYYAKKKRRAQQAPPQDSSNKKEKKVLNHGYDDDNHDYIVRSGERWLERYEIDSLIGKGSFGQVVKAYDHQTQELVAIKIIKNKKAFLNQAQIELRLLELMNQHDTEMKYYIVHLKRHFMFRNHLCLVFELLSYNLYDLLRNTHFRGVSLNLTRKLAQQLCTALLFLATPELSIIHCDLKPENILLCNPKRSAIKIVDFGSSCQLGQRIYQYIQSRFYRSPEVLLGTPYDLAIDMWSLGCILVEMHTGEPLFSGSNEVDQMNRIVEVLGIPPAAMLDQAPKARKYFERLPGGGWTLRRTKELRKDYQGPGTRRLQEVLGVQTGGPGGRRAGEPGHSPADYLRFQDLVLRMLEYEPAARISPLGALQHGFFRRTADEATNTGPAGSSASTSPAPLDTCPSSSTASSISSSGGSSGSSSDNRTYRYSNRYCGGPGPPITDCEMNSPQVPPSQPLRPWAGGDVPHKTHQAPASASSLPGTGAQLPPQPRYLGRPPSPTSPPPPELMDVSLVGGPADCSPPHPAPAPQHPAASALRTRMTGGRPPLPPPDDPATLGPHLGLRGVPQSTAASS

Structure (SMILES) | IC50 (DYRK1A) | IC50 (DYRK1B) | IC50 (DYRK2) | IC50 (DYRK3) | Inhibitory Activity 1a (IC50 against DYRK1A) (DYRK1A) | Inhibitory Activity 1b (IC50 against DYRK1B) (DYRK1B) | Inhibitory Activity 2 (IC50 against DYRK2) (DYRK2) | Inhibitory Activity 3 (IC50 against DYRK3) (DYRK3)
CC#CC1CNC(=O)N1c1nc2c3c(ccc2s1)OCCN3C(C)=O (racemic) [Example 39, (RS)-1-(9-acetyl-8,9-dihydro-7H-thiazolo[4′,5′:3,4]benz[1,2-b][1,4]oxazin-2-yl)-5-(prop-1-yn-1-yl)imidazolidin-2-one] | 0.1 to 1 µM | ≥ 1 µM | ≥ 1 µM | ≥ 1 µM | – | – | – | –
CC#C[C@@H]1CNC(=O)N1c1nc2c3c(ccc2s1)OCO3 [Example 2, (R)-1-([1,3]dioxolo[4′,5′:5,6]benzo[1,2-d]thiazol-7-yl)-5-(1-propyn-1-yl)imidazolidin-2-one] | – | – | – | – | * * * | * * * | * * | * *
CC#C[C@H]1CNC(=O)N1c1nc2c3c(ccc2s1)OCO3 [Example 3, (S)-1-([1,3]dioxolo[4′,5′:5,6]benzo[1,2-d]thiazol-7-yl)-5-(1-propyn-1-yl)imidazolidin-2-one] | – | – | ≥ 1 µM | ≥ 1 µM | * * | * * | – | –
CC#C[C@@H]1[C@H](C)NC(=O)N1c1nc2c3c(ccc2s1)OCC3 [Example 5, (4S,5R)-1-(7,8-dihydrobenzofuro[4,5-d]thiazol-2-yl)-4-methyl-5-(prop-1-yn-1-yl)imidazolidin-2-one] | – | – | 0.1 to 1 µM | 0.1 to 1 µM | * * * | * * * | – | –

Now from value to molecule:

IC50 (DYRK1A) | IC50 (DYRK1B) | IC50 (DYRK2) | IC50 (DYRK3) | Inhibitory Activity 1a (IC50 against DYRK1A) (DYRK1A) | Inhibitory Activity 1b (IC50 against DYRK1B) (DYRK1B) | Inhibitory Activity 2 (IC50 against DYRK2) (DYRK2) | Inhibitory Activity 3 (IC50 against DYRK3) (DYRK3) | Structure (SMILES)
0.1 to 1 µM | 0.1 to 1 µM | ≥ 1 µM | ≥ 1 µM | – | – | – | – | CC#CC1CNC(=O)N1c1nc2c(ccc3nnn(C)c32)s1 (single isomer, unassigned) [Example 29, 1-(1-methyl-1H-thiazolo[4′,5′:3,4]benz[1,2-d][1,2,3]triazol-7-yl)-5-(prop-1-yn-1-yl)imidazolidin-2-one]
– | – | 0.1 to 1 µM | 0.1 to 1 µM | * * * | * * * | – | – | CC#CC1CNC(=O)N1c1nc2c(ccc3nnn(C)c32)s1 (single isomer, unassigned) [Example 30, 1-(1-methyl-1H-thiazolo[4′,5′:3,4]benz[1,2-d][1,2,3]triazol-7-yl)-5-(prop-1-yn-1-yl)imidazolidin-2-one]
